In brackets after ≈: the same amount, converted by molar mass.

Details in the first series: not given
The term solubility denotes the dissolved amount per volume that the medium holds. A high value points to much dissolved substance. On to `CC(C)(S(C)(=O)=O)S(C)(=O)=O`, for which the solubility was 35.4 mM (≈ 7100 µg/mL). The same measure, in the same setting: the same measure for `CC12CCC(C(CO)C1=O)C2(C)C` (centres undefined): 610 mM (≈ 111000 µg/mL); for `Nc1ccc(CC(=O)c2ccccc2)cc1`: 15.7 mM (≈ 3310 µg/mL); for `NC(=S)SCC(=O)O`: 179 mM (≈ 27000 µg/mL).

In turn, `CCS(=O)(=O)CCSP(=S)(OC)OC` displayed a solubility of 2.87 mM (≈ 800 µg/mL).

In turn, `O=C(OCCCO)c1ccccc1` returned a solubility of 55.5 mM (≈ 10000 µg/mL).

The compound `O=C(c1ccccc1I)N(O)c1ccccc1` registered a solubility of 0.295 mM (≈ 100 µg/mL). Still for that read-out and setting: the same measure for `CCCOC(=O)C(C)(C)O`: 684 mM (≈ 100000 µg/mL); for `CC(=O)C(=O)Nc1ccccc1`: 42.9 mM (≈ 7000 µg/mL). Compound `O=C1CN(CO)C(=O)CN1CO` had a solubility of 383 mM (≈ 66700 µg/mL).

For the compound `CCN(CC)C(=O)N(CC)CC`, the solubility is 232 mM (≈ 40000 µg/mL). The same measure, in the same setting: the same measure for `O=c1cc(Br)c2ccccc2o1`: 22.2 mM (≈ 5000 µg/mL); for `CCNC(CC)C(=O)O` (centres undefined): 381 mM (≈ 50000 µg/mL). The same measure, in the same setting: with `CCOC(=O)C(CC(=O)O)=C(c1ccccc1)c1ccccc1` the figure was 6.44 mM (≈ 2000 µg/mL); with `CCOC(=O)[C@H](C)NC(=O)CCl`, 345 mM (≈ 66700 µg/mL).

For `COC(/C=C/C(OC)OC)OC`, the solubility stood at 1140 mM (≈ 200000 µg/mL). The same measure, in the same setting: the same measure for `O=C(O)C1CCNCC1C(=O)O` (centres undefined): 289 mM (≈ 50000 µg/mL); for `CC1=CCCN1C`: 1340 mM (≈ 130000 µg/mL); for `NCCc1ccc(O)c([N+](=O)[O-])c1`: 45.7 mM (≈ 8330 µg/mL). Same read-out and setting: the same measure for `CC1(C)CC(C(=O)O)C(C)(C)N1` (centres undefined): 2920 mM (≈ 500000 µg/mL); for `CCOC(=O)c1c(C(=O)O)ccc(OC)c1OC`: 5.58 mM (≈ 1420 µg/mL).

In turn, `O=C1OCc2ccc3ccccc3c21` returned a solubility of 0.494 mM (≈ 91 µg/mL).

Turning to `O=C(c1ccccc1)N(O)c1cccc2ccccc12`, the solubility was found to be 0.494 mM (≈ 130 µg/mL). With `COC(=O)CCCCCCCCC(=O)OC`, the solubility was 0.521 mM (≈ 120 µg/mL).

`O=C(NCCc1c[nH]cn1)c1ccccc1`: the solubility came to 232 mM (≈ 50000 µg/mL). On the same count and under the same terms, with `CC(S(C)(=O)=O)S(C)(=O)=O` the figure was 38.1 mM (≈ 7100 µg/mL); with `CC(C)CCOCC(O)CO` (centres undefined), 61.6 mM (≈ 10000 µg/mL); with `O=C(O)CSSSSCC(=O)O`, 35.3 mM (≈ 8700 µg/mL). Still for that read-out and setting: with `NC(=O)C=Cc1ccccc1[N+](=O)[O-]` the figure was 52 mM (≈ 10000 µg/mL); with `CCOC(OCC)C(Cl)(Cl)Cl`, 22.6 mM (≈ 5000 µg/mL).

The series is the same for the next values; noted with them: 20 °C.
`CC1(C)CO1` yielded a solubility of 804 mM (≈ 58000 µg/mL). Still for that read-out and setting: with `CCCCOC(=O)c1c(C(=O)O)cccc1[N+](=O)[O-]` the figure was 1.91 mM (≈ 510 µg/mL). `CSc1cc(O)cc(O)c1` showed a solubility of 16 mM (≈ 2500 µg/mL).

For the compound `c1ccc2c3c(ccc2c1)Nc1ccc2ccccc2c1S3`, the solubility came out at 0.000132 mM (≈ 0.0396 µg/mL).

On to `C=CCOc1ccccc1C(N)=O`, for which the solubility turned out to be 5.93 mM (≈ 1050 µg/mL).

In turn, `NC(=O)NC(=O)C=CC(=O)O` registered a solubility of 12 mM (≈ 1900 µg/mL).

`CCOCC(N)C(=O)O` (centres undefined) displayed a solubility of 3340 mM (≈ 445000 µg/mL). Still for that read-out and setting: with `Cc1ccc(C(=O)O)o1` the figure was 150 mM (≈ 18900 µg/mL); with `NC(=S)Nc1cccc([N+](=O)[O-])c1`, 35.5 mM (≈ 7000 µg/mL).

On to `C/C=C\CC1(C/C=C/C)C(=O)NC(=O)NC1=O`, for which the solubility turned out to be 6.35 mM (≈ 1500 µg/mL). The same measure, in the same setting: the same measure for `CC(C)(NC(N)=O)C(=O)O`: 68.4 mM (≈ 10000 µg/mL); for `Cn1cc2nccnc2nc1=O`: 123 mM (≈ 20000 µg/mL); for `O=S(CCCl)CCCl`: 68.5 mM (≈ 12000 µg/mL). On the same count and under the same terms, with `ClCCOCOCCCl` the figure was 45.1 mM (≈ 7800 µg/mL).

`O=C(O)c1cc(Br)co1` registered a solubility of 65.4 mM (≈ 12500 µg/mL). Compound `O=C(Nc1ccccc1)C(Cl)Cl` displayed a solubility of 0.441 mM (≈ 90 µg/mL). Still for that read-out and setting: with `Oc1cccc2ccnnc12` the figure was 3.9 mM (≈ 570 µg/mL); with `CCC(CC)COC(C)=O`, 44.4 mM (≈ 6400 µg/mL); with `COc1cc(C(C)=O)ccc1O`, 30.1 mM (≈ 5000 µg/mL). The same measure, in the same setting: with `COc1ncnc2nccnc12` the figure was 77.1 mM (≈ 12500 µg/mL). The same measure, in the same setting: the same measure for `CC(C)(O)CC(C)(O)c1cccc2ccccc12` (centres undefined): 0.573 mM (≈ 140 µg/mL); for `CCOC(=O)c1[nH]c(C=O)c(CC)c1C`: 1.91 mM (≈ 400 µg/mL); for `O=C(O)CCCP(=O)(O)O`: 3170 mM (≈ 533000 µg/mL). On to `NC(=O)NC(Cc1ccccc1)C(=O)O` (racemic), for which the solubility came to 8.02 mM (≈ 1670 µg/mL).

`O=Cc1ccc(Br)o1` displayed a solubility of 28.6 mM (≈ 5000 µg/mL). `O=CC(=O)Cc1ccccc1` showed a solubility of 6.75 mM (≈ 1000 µg/mL).

On to `NC(=O)CBr`, for which the solubility was 1160 mM (≈ 160000 µg/mL). The same measure, in the same setting: the same measure for `Ic1ccc2c(c1)Sc1ccccc1N2`: 0.000118 mM (≈ 0.0384 µg/mL). Still for that read-out and setting: with `NC1=NC(C(=O)O)CCS1` (centres undefined) the figure was 187 mM (≈ 30000 µg/mL). On the same count and under the same terms, with `Cc1cc(C)c(OCC(=O)O)c(Br)c1` the figure was 0.753 mM (≈ 195 µg/mL); with `FC(F)(F)c1nc2ncncc2[nH]1`, 354 mM (≈ 66700 µg/mL). Take `CCOC(=O)c1ccccc1C(=O)c1ccccc1`: the solubility is 0.393 mM (≈ 100 µg/mL).

In the case of `Nc1ncc2[nH]cnc2n1`, the solubility is 61.7 mM (≈ 8330 µg/mL). Still for that read-out and setting: with `Cn1c(=O)c2n[se]nc2n(C)c1=O` the figure was 5.02 mM (≈ 1230 µg/mL); with `COC(=O)c1cc([N+](=O)[O-])ccc1C(=O)O`, 19 mM (≈ 4280 µg/mL); with `OCc1ccc(I)cc1`, 1.79 mM (≈ 420 µg/mL). Still for that read-out and setting: with `CCCCCCCCOC(=O)c1cc(O)c(O)c(O)c1` the figure was 0.127 mM (≈ 36 µg/mL); with `O=c1ncc2[nH]cnc2[nH]1`, 19.3 mM (≈ 2630 µg/mL). The same measure, in the same setting: the same measure for `CC(=O)Nc1ccc(Cl)cc1C`: 4.9 mM (≈ 900 µg/mL).

The values above are taken from the OPERA property sets (Mansouri et al. 2018).
